This passage reports IC50 and Average colony count results from ChEMBL document CHEMBL1128802, “Hydroxy-anthraquinones as antimalarial agents” (Bioorg Med Chem Lett, 1995).

In assay [1] the test system is Plasmodium falciparum. Nature of the assay: In vitro inhibitory activity against Plasmodium falciparum D6. The class given is functional, organism-based.
The subject of assay [2] is CFU-GM. Nature of the assay: In vitro toxicity against human bone marrow stem cells(CFU-GM) at a dose of 100.0 uM; activity expressed as average colony count. The class given is functional.
The subject of assay [3] is CFU-GM. Nature of the assay: In vitro toxicity against human bone marrow stem cells(CFU-GM) at a dose of 5.0 uM; activity expressed as average colony count. The class given is functional.
Assay [4] concerns CFU-GM. Nature of the assay: In vitro toxicity against human bone marrow stem cells(CFU-GM) at a dose of 1.0 uM; activity expressed as average colony count. The assay is classed as functional.
Assay [5] concerns CFU-GM. Nature of the assay: In vitro toxicity against human bone marrow stem cells(CFU-GM) at a dose of 0.1 uM; activity expressed as average colony count. The assay is classed as functional.
Assay [6] deals with CFU-GM. Nature of the assay: In vitro toxicity against human bone marrow stem cells (CFU-GM) in the absence (control); activity expressed as average colony count. The assay is classed as functional, Bone element.
In assay [7] the test system is CFU-GM. Nature of the assay: In vitro toxicity against human bone marrow stem cells(CFU-GM) at a dose of 10.0 uM; activity expressed as average colony count. The class given is functional.
Assay [8] deals with CFU-GM. Nature of the assay: In vitro toxicity against human bone marrow stem cells(CFU-GM) in the absence (control); activity expressed as average colony count. The class given is functional.

In assay [1], `COc1cc2c(cc1OC)C(=O)c1cc(OC)c(OC)cc1C2=O` returned an IC50 of no less than 5000 nM.

As to `O=C1c2c(O)c(O)c(O)c(O)c2C(=O)c2c(O)c(O)c(O)c(O)c21`, the IC50 in assay [1] worked out at 800 nM.

In turn, `COc1cc2c(c(OC)c1OC)C(=O)c1cc(OC)c(OC)c(OC)c1C2=O` had a 50% inhibitory concentration (IC50) in assay [1] of no less than 5000 nM.

As for `COc1c(OC)c(OC)c2c(c1OC)C(=O)c1c(OC)c(OC)c(OC)c(OC)c1C2=O`, in assay [1], the IC50 was no less than 5000 nM.

Turning to `O=C1c2c(O)c(O)c(O)c(Br)c2C(=O)c2c(O)c(O)c(O)c(Br)c21`, the half-inhibitory concentration (IC50) in assay [1] turned out to be 5000 nM.

`COc1c(Br)c2c(c(OC)c1OC)C(=O)c1c(Br)c(OC)c(OC)c(OC)c1C2=O` returned an IC50 in assay [1] of no less than 5000 nM.

On to `O=C1c2cc(O)c(O)cc2C(=O)c2cc(O)c(O)cc21`, for which it took 300 nM to reach half-maximal inhibition in assay [1] (IC50).

In the case of `O=C1c2cc(O)c(O)c(O)c2C(=O)c2cc(O)c(O)c(O)c21`, the Average colony count came to 5 in assay [2]; 47 in assay [3]; 57 in assay [4]; 61 in assay [5]; 56 in assay [6]; 36 in assay [7]. Further, half-maximal inhibition in assay [1] (IC50) required 35 nM.

In turn, `O=C1c2ccc(O)cc2C(=O)c2ccc(O)cc21` [ANTHRAFLAVICACID] came in with a concentration for half-maximal inhibition (IC50) in assay [1] greater than 1000 nM.

`O=C1c2ccccc2C(=O)c2ccccc21` [ANTHRAQUINONE] gave an IC50 in assay [1] of 5000 nM.

`O=C1c2cccc(O)c2C(=O)c2cccc(O)c21` [ANTHRARUFIN] gave a concentration for half-maximal inhibition (IC50) in assay [1] greater than 1000 nM.

As for `CCN(CC)CCCC(C)Nc1ccnc2cc(Cl)ccc12` (centres undefined) [CHLOROQUINE], the Average colony count in assay [8] is 56; in assay [2], 5; in assay [3], 54; in assay [4] it was 54; in assay [5], 56; in assay [7] it was 48.

The compound `O=C1c2ccccc2C(=O)c2c(O)c(O)cc(O)c21` [PURPURIN] yielded a 50% inhibitory concentration (IC50) in assay [1] greater than 1000 nM.
